For one experiment, the target named is T1, serotonin transporter (Rattus norvegicus, UniProt P31652).
T1 construct: Cerebral cortices from male Wistar rats (150-200 g) are homogenized; from tissue; host or cells: rat cerebral cortex synaptosomes (P2 pellet)
Kind of experiment: In vitro inhibition of 3H-5-hydroxytryptamine uptake in cortical synaptosomes. It counts as biochemical. The settings on record: 3H-5-HT 1 nM, 30 minutes at 37° C. How it is done:
In vitro Inhibition of ^3H-5-Hydroxytryptamine Uptake in Cortical Synaptosomes
Serotonin transporters/uptake sites on nerve terminals presumably function to terminate neuronal signaling by removing serotonin from the synaptic cleft. The activity of the serotonin transporter integral protein can be measured in vitro by synaptosomal uptake of ^3H-5-hydroxytryptamine (5-HT, serotonin).
Preparations are performed at 0-4° C. Cerebral cortices from male Wistar rats (150-200 g) are homogenized for 5-10 seconds in 100 volumes of ice-cold 0.32 M sucrose containing 1 mM pargyline, using a motor driven teflon pestle in a glass homogenizing vessel. Monoamine oxidase activity is inhibited in the presence of pargyline.
The homogenate is subjected to centrifugation at 1000×g for 10 minutes. The resulting supernatant is then centrifuged at 27,000×g for 50 minutes and the supernatant is discarded. […]
Aliquots of 4.0 ml tissue suspension are added to 100 μl of test solution and 100 μl of ^3H-5-HT (1 nM, final concentration), mixed and incubated for 30 minutes at 37° C. Non-specific uptake is determined using Citalopram (1 μM, final concentration, available from Lundbeck, Denmark). […]
The amount of radioactivity on the filters is determined by conventional liquid scintillation counting. Specific uptake is calculated as the difference between total uptake and non-specific uptake. […]

Experiment [1] addresses T2, α7-subtype of nicotinic receptors (Rattus norvegicus, UniProt Q05941).
T2 construct: Cerebral cortices from male Wistar rats (150-250 g) are homogenised; from tissue; host or cells: rat cerebral cortex membrane homogenate
The experiment in a line: In vitro inhibition of 3H-α-bungarotoxine binding in rat brain. Particulars: rat cerebral cortex homogenate; 3H-α-bungarotoxine 2 nM; 2 hours at 37° C.

Structures are written as SMILES. Structures can show the parent of a compound that is named as a salt.

Our source for the IC50 values is US7300933B2, “Diazabicyclic biaryl derivatives” (Neurosearch A/S, priority 2002, dated 2007).

T1 sequence (P31652 whole entry): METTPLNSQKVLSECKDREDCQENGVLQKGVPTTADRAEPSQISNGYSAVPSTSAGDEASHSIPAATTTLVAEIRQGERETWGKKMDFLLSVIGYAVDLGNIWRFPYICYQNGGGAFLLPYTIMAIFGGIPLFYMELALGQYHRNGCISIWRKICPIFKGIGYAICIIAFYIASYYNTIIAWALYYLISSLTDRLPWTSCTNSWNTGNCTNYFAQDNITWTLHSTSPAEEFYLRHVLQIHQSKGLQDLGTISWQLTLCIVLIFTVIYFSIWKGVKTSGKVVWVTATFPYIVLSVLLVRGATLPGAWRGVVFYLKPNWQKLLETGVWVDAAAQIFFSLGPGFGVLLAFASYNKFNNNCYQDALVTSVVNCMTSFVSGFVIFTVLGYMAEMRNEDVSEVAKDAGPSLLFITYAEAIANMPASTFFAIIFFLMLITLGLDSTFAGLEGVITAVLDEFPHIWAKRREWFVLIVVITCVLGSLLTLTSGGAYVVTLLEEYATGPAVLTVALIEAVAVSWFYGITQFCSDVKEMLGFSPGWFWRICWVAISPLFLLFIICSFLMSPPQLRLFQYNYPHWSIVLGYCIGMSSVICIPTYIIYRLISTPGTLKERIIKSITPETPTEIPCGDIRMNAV
T2 sequence (Q05941 23-502): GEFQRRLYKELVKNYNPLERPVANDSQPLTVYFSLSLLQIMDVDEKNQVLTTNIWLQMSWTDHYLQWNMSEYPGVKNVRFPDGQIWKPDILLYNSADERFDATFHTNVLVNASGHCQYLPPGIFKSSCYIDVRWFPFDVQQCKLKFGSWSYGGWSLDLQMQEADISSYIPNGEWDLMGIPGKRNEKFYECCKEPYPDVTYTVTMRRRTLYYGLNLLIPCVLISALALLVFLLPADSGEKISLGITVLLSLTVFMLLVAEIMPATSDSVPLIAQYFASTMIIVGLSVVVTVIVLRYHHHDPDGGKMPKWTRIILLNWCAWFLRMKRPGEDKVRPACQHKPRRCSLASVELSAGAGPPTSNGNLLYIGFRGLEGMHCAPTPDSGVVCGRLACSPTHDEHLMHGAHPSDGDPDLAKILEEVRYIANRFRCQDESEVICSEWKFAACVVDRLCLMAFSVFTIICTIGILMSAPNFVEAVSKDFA

On to `c1cc(-c2ccc(N3C[C@@H]4C[C@H]3CN4)nn2)cs1` [Compound 1A, 2-[6-(3-Thienyl)-3-pyridazinyl]-(1S,4S)-2,5-diazabicyclo-[2.2.1]-heptane fumaric acid salt], for which half-maximal inhibition against serotonin transporter (IC50) was put at 510 nM. Take `CN1C[C@@H]2C[C@H]1CN2c1ccc(-c2ccsc2)nn1` [Compound 1B, 5-Methyl-2-[6-(3-thienyl)-3-pyridazinyl]-(1S,4S)-2,5-diazabicyclo-[2.2.1]-heptane]: the IC50 – broadly, the concentration needed to halve the response being measured – in experiment [1] was found to be 200 nM. In the case of `c1cc(-c2cnc(N3C[C@@H]4C[C@H]3CN4)cn2)cs1` [Compound 1H, 2-[5-(3-Thienyl)-2-pyrazinyl]-(1S,4S)-2,5-diazabicyclo-[2.2.1]-heptane fumaric acid salt], the IC50 stood at 260 nM in experiment [1] and 21 nM against serotonin transporter.
